Measured values reported in patent US20230022880A1, “Antimicrobial Composition” (INSTITUTE OF TECHNOLOGY SLIGO, priority 2019, published 2023).

Test system: several species of micro-organisms (Candida spp, Pseudomonas spp, E. coli)
Test: Well diffusion bioassay, zones of inhibition
Assay type: cell-based
Settings: NaCl tested on its own
Description: Escherichia coli (NCIMB 8545), Staphylococcus aureus (NCIMB 9518) and Pseudomonas aeruginosa (NCIMB 8626) are grown on nutrient agar or in nutrient broth for 24 hrs at 37° C.
Candida albicans (NCIMB 3179) and Saccharomyces cerevisiae are grown on sabaroud dextrose agar or in sabaroud dextrose broth for 24 hrs at 37° C. […]
Bacterial growth is monitored by measuring the culture optical density (OD) in a spectrophotometer (Anthos 2010) at a wavelength of 620 nm.
The formulations were assessed for antimicrobial activity against several species of micro-organisms (several of which produce catalase; Candida spp, Pseudomonas spp, E. coli) using the well diffusion bioassay, results were obtained by measuring the zones of inhibition (n=3).
Agar plates are inoculated by swabbing overnight culture onto the plate surface. Plates are allowed to stand at room temperature for 15 minutes before use. Wells 8.2 mm diameter are bored into the surface of the agar. A 180 μl sample is placed into each well. The samples diffuse into the agar around the well and are assayed for an ability to produce a zone of inhibition. Plates are incubated for 24, 48 or 72 hrs and zones of inhibition are measured using an Autodata automatic zone reader. The diameter of zones, including the diameter of the well (8.2 mm), is recorded. […]

`[Cl-].[Na+]` [NaCl, sodium chloride] was tested. Which Antimicrobial activity did it give?
The Antimicrobial activity was “no discernible activity”.
